Read-outs that look alike come from different tables or passages of the source.
How the values were obtained:
Trx-1/TrxR = biological target: T1, Trx-1/TrxR (Homo sapiens, UniProt P10599+Q16881); experiment: Trx-1/TrxR-dependent insulin reducing assay; format: biochemical; conditions: for IC50: calculated from 5 concentrations (0.1 to 50 μM)
T1 construct: Thioredoxin reductase was purified from human placenta as previously described; made in house
T1 sequence (P10599 1-105): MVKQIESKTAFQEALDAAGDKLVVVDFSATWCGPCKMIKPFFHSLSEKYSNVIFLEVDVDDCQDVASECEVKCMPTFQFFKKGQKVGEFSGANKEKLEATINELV
T1 sequence (Q16881 1-499 isoform Q16881-5): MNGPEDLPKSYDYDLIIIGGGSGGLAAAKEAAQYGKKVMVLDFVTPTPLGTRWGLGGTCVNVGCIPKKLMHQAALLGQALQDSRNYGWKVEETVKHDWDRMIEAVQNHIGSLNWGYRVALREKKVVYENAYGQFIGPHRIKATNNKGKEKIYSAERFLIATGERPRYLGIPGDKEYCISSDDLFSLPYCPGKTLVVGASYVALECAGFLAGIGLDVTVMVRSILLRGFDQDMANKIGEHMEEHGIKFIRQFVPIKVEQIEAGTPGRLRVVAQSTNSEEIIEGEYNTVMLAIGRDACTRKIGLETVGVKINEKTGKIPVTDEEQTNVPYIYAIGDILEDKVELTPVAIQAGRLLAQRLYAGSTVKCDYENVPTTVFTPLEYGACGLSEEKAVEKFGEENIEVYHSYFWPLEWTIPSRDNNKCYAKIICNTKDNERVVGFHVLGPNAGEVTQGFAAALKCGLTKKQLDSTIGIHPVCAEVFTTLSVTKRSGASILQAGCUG
Description: Thioredoxin reductase was purified from human placenta as previously described (Oblong, J.E.; Gasdaska, P.Y.; Sherrill, K.; Powis,G. Biochemistry 1993, 32, 7271) and recombinant human Trx-1 was prepared as previously described (Gasdaska, P.Y.; Oblong, J.E.; Cotgreave, I.A.; Powis,G. Biochem.Biophys.Acta 1994 ,1218 ,292). TrxR and Trx-1/TrxR activities were measured spectrophotometrically using previously published microtiter plate colorimetric assays, based on the increase in absorbance at 405 nm which occurs as dithionitrobenzoic acid (DTNB) is reduced by the enzyme-mediated transfer of reducing equivalents from NADPH (Gasdaska et al., Biochem.Biophys.Acta 1994 ,1218,292). Trx-1/TrxR-dependent insulin reducing activity was measured in an incubation with a final volume of 60 μL containing 100 mM HEPES buffer, pH 7.2,5 mM EDTA (HE buffer),1 mM NADPH, […],0.8 μM Trx-1 and 2.5 mg/mL bovine insulin. Incubations were for 30 min at 37 ° C. in flat-bottom 96-well microtiter plates. The reaction was stopped by the addition of 100 μL of 6 M guanidine-HC1, 50 mM Tris, pH 8.0, and 10 mM DTNB, and the absorbance measured to 405 nm. TrxR activity was measured in a final incubation volume of 60 μL containing HE buffer, 10 mM DTNB, 1.0 μM TrxR and 1 mM NADPH. Compounds were diluted in HE buffer and added to the wells as 20 μL aliquots, and TrxR was then added,also as 20 μL aliquots in HE buffer. To start the reaction NADPH and DTNB were added as a 20 μL aliquot in HE buffer and the plate was moved to the plate reader which had been preheated to 37 ° C. The optical density at 405 nm was measured every 10 s and initial reaction rates were measured.

MDA-MB-231 cells = experiment: Antiproliferative assay, MDA-MB-231 cells; format: cell-based, human; conditions: 72 hours; for sensitivity of MDA-MB-231 cells, in words: FIG. 23 Panel B; for IC50: read-out: MDA-MB-231 50% cell growth inhibition
From the text: MDA-MB-231 cells, which were also derived from an adenocarcinoma of the breast, are less differentiated than the MCF-7 cells and fail to express functional p53 or estrogen receptors. This class of tumor cells contains important targets for new therapies, because loss of estrogen receptor expression is associated with poor patient prognosis. (Osborne, C. K. Breast Cane. Res. Treatm. 1998, 51, 227).
The inventors extrapolated to determine the IC50 for compounds with little cytotoxicity at 30,μM, the highest concentration tested. […] The enhanced sensitivity of MCF-7 to these compounds may be due to the expression of p53 in these cells.
Two compounds, 24 referred to herein as SR-4 and 27 referred to herein as SR-7, were examined in greater detail as to their effects on biological activity. The proliferation of MCF-7, MDA-MB-231 and SV40 transformed mouse embryonic fibroblasts was measured by a previously described colorimetric assay (Wipf P, Jung J-K, Rodriguez S, Lazo JS Synthesis and biological evaluation of Deoxypreussomerin A and Palmarumycin CP 1 and related naphthoquinone spiroketals. Tetrahedron 57:283-296, 2001 and Vogt A, Rice RL, Settineri CE, Yokokawa F, Yokokawa S, Wipf P and Lazo JS (1998) Disruption of insulin-like growth factor-I signaling and down-regulation of Cdc2 by SC-ααδ9, a novel small molecule antisignaling agent identified in a targeted array library. J Pharmacol Exptl Therap 287:806-813.). Briefly, the inventors seeded 4,000-6,000 cells per well in microtiter plates. Cells were allowed to attach overnight and treated with vehicle or compounds for 72 h, after which the medium was replaced with serum free medium containing 0.1% 3-[4,5-dimethylthiazol-2-yl]-2,5-diphenyl tetrazolium bromide. Plates were incubated for 3 hours in the dark and total cell number was determined by spectrophotometrically at 540 nm as previously described (Vogt A, Rice RL, Settineri CE, Yokokawa F, Yokokawa S, Wipf P and Lazo JS (1998) Disruption of insulin-like growth factor-1 signaling and down-regulation of Cdc2 by SC-ααδ9, a novel small molecule antisignaling agent identified in a targeted array library. J Pharmacol Exptl Therap 287:806-813.). […] Cells were maintained in RPMI 1640 medium containing 10% fetal bovine serum and the paclitaxel-resistant cells also contained 17 nM paclitaxel and 10 μM verapamil. Cells were plated (2,000/well) in 96-well plates and allowed to attach and grow for 72 hours (paclitaxel and verapamil were removed from resistant cell medium two weeks prior to this plating). They were then treated with 0.5% DMSO vehicle control or 0.08-10 μM compound. The number of cells was determined spectrophotometrically at 490 nm minus absorbance at 630 nm after exposure to 3-(4,5-dimethylthiazol-2-yl)-5-(3-carboxymethoxyphenyl)-2-(4-sulfophenyl)-2H-tetrazolium and N-methyldibenzopyurazine methyl sulfate.
Because of the potential importance of the tumor suppressor gene p53 and the estrogen receptor in controlling the cellular response to cytotoxic agents, the inventors also examined the sensitivity of MDA-MB-231 cells, which lack functional p53 and estrogen receptors. […] As might be expected, these p53 and estrogen receptor deficient cells were generally less sensitive to both natural products and analogs when compared to MCF-7 cells.

## O=C1C=CC2(Oc3cccc4cccc(c34)O2)c2cccc(OCc3ccco3)c21 [SR-7, 8-(furan-2-ylmethoxy)-1-oxo-1,4-dihydronaphthalene-4-spiro-2′-naphto [1″,8″-de][1′,3′] dioxin]
Trx-1/TrxR
  IC50: > 50 µM
MDA-MB-231 cells
  sensitivity of MDA-MB-231 cells, in words: equally sensitive
MDA-MB-231 cells; Homo sapiens, MDA-MB-231
  IC50: 2500 nM

## O=C1C=CC2(Oc3cccc4cccc(c34)O2)c2cccc(O)c21 [palmarumycin CP1, 8-hydroxy-1-oxo-1,4-dihydronaphthalene-4-spiro-2′-naphtho[1″,8″-de] [1′,3′] dioxin, reference compound]
Trx-1/TrxR
  selectivity for Trx-1 over TrxR: > 30 fold
  IC50: 0.35 µM
MDA-MB-231 cells
  sensitivity of MDA-MB-231 cells, in words: equally sensitive
MDA-MB-231 cells; Homo sapiens, MDA-MB-231
  IC50: 2400 nM

## COc1cccc2c1C(=O)C=CC21OCCCO1 [TH-223]
Trx-1/TrxR
  Trx-1/TrxR inhibition, in words: practically inactive
  IC50: 40.2 µM
MDA-MB-231 cells
  IC50: 5000 nM

## O=C1C=CC2(Oc3cccc4cccc(c34)O2)c2cccc(OCc3ccccn3)c21 [SR-11, 8-(pyridin-2-ylmethoxy)-1-oxo-1,4-dihydronaphthalene-4-spiro-2′-naphto [1″,8″-de][1′,3′] dioxin]
Trx-1/TrxR
  IC50: 41.8 µM
MDA-MB-231 cells; Homo sapiens, MDA-MB-231
  IC50: 2800 nM

## COc1cccc(COc2cccc3c2C(=O)C=CC32Oc3cccc4cccc(c34)O2)c1 [SR-5, 8-(3-methoxy-benzyloxy)-1-oxo-1,4-dihydronaphthalene-4-spiro-2′-naphto [1″,8″-de][1′,3′] dioxin]
Trx-1/TrxR
  IC50: > 50 µM
MDA-MB-231 cells; Homo sapiens, MDA-MB-231
  IC50: 2700 nM

## O=C1C=CC2(Oc3cccc4cccc(c34)O2)c2cccc(OCCc3ccccc3)c21 [SR-6, 8-(2-phenyl-ethoxy)-1-oxo-1,4-dihydronaphthalene-4-spiro-2′-naphto [1″,8″-de][1′,3′] dioxin]
Trx-1/TrxR
  IC50: > 50 µM
MDA-MB-231 cells; Homo sapiens, MDA-MB-231
  IC50: 4600 nM

## C/C=C/COc1cccc2c1C(=O)C=CC21Oc2cccc3cccc(c23)O1 [SR-2, (E)-8-(but-2-enyloxy)-1-oxo-1,4-dihydronaphthalene-4-spiro-2′-naphto [1″,8″-de][1′,3′]dioxin]
Trx-1/TrxR
  IC50: > 50 µM
MDA-MB-231 cells; Homo sapiens, MDA-MB-231
  IC50: 2900 nM

## CC(C)=CCC/C(C)=C/COc1cccc2c1C(=O)C=CC21Oc2cccc3cccc(c23)O1 [SR-9, (E,E)-8-(3,7-diemthyl-octa-2,6-dienyloxy)-1-oxo-1,4-dihydronaphthalene-4-spiro-2′-naphtol [1″,8″-de][1′,3′] dioxin]
Trx-1/TrxR
  IC50: > 50 µM
MDA-MB-231 cells; Homo sapiens, MDA-MB-231
  IC50: 2000 nM

## C=CCOc1cccc2c1C(=O)C=CC21Oc2cccc3cccc(c23)O1 [SR-14, 8-allyloxy-1-oxo-1,4-dihydronaphthalene-4-spiro-2′-naphto [1″,8″-de][1′,3′] dioxin]
Trx-1/TrxR
  IC50: 23.2 µM
MDA-MB-231 cells; Homo sapiens, MDA-MB-231
  IC50: 2700 nM

## O=C1C=CC2(Oc3cccc4cccc(c34)O2)c2cccc(OCc3ccncc3)c21 [SR-13, 8-(pyridin-4-ylmethoxy)-1-oxo-1,4-dihydronaphthalene-4-spiro-2′-naphtol [1″,8″-de][1′,3′] dioxin]
Trx-1/TrxR
  IC50: > 50 µM
MDA-MB-231 cells; Homo sapiens, MDA-MB-231
  IC50: 7300 nM

## O=C1C=CC2(OCCO2)c2cccc(O)c21 [TH-169]
Trx-1/TrxR
  Trx-1/TrxR inhibition, in words: maintains significant activity
  fold less active than palmarumycin CP1 on Trx-1/TrxR: approximately 10 fold
  selectivity for Trx-1 over TrxR: approximately 2 fold
  IC50: 3.4 µM
MDA-MB-231 cells; Homo sapiens, MDA-MB-231
  IC50: 4300 nM

## COc1ccc(COc2cccc3c2C(=O)C=CC32Oc3cccc4cccc(c34)O2)cc1 [TH-39, 8-(4-methoxy-benzyloxy)-1-oxo-1,4-dihydronaphthalene4-spiro-2-naphto [1,8-de][1, 3]dioxin]
Trx-1/TrxR
  IC50: > 50 µM
MDA-MB-231 cells; Homo sapiens, MDA-MB-231
  IC50: 2200 nM

## O=C1C=CC2(Oc3cccc4cccc(c34)O2)c2cccc(OCc3cccnc3)c21 [SR-12, 8-(pyridin-3-ylmethoxy)-1-oxo-1,4-dihydronaphthalene-4-spiro-2′-naphto [1″,8″-de][1′,3′] dioxin]
Trx-1/TrxR
  IC50: > 50 µM
MDA-MB-231 cells; Homo sapiens, MDA-MB-231
  IC50: 1400 nM

## O=C1C=CC2(Oc3cccc4cccc(c34)O2)c2cccc(OC/C=C/c3ccccc3)c21 [SR-1, (E)-8-(3-phenyl-allyloxy)-1-oxo-1,4-dihydronaphthalene-4-spiro-2′-naphto[1″, 8″-de] [1′,3′] dioxin]
Trx-1/TrxR
  IC50: > 50 µM
MDA-MB-231 cells; Homo sapiens, MDA-MB-231
  IC50: 7500 nM

## CCCCCCOc1cccc2c1C(=O)C=CC21Oc2cccc3cccc(c23)O1 [SR-3, 8-hexyloxy-1-oxo-1,4-dihydronaphthalene-4-spiro-2′-naphto [1″,8″-de] [1′,3′] dioxin]
Trx-1/TrxR
  IC50: > 50 µM
MDA-MB-231 cells; Homo sapiens, MDA-MB-231
  IC50: 13600 nM

## O=C1C=CC2(Oc3cccc4cccc(c34)O2)c2cccc(OCc3ccoc3)c21 [SR-10, 8-(furan-3-ylmethoxy)-1-oxo-1,4-dihydronaphthalene-4-spiro-2′-naphto [1′,8′-de][1′,3′] dioxin]
Trx-1/TrxR
  IC50: 23.2 µM
MDA-MB-231 cells; Homo sapiens, MDA-MB-231
  IC50: 2000 nM
